The record followed here is ChEMBL document CHEMBL5726067, “[8-(phenylsulfonyl)-3,8-diazabicyclo[3.2.1]oct-3-yl](1H-1,2,3-triazol-4-yl)methanones” (2019).

The structures appear in SMILES notation. pIC50: −log10 of the molar value.

The target in this assay is T1, Aldo-keto reductase family 1 member C3 (Homo sapiens, UniProt P42330).
T1 sequence (P42330 whole entry): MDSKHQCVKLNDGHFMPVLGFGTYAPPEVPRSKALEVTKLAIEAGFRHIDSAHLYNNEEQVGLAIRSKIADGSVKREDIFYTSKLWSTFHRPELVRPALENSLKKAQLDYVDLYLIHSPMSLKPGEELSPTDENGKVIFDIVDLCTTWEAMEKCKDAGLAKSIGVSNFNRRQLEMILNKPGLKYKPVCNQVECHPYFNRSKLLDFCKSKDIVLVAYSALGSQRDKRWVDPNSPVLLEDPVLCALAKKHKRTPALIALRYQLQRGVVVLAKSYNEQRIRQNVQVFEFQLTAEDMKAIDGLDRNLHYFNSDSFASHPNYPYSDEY
As to the kind of experiment: AKR1C3-Inhibitory Activity Assay: The enzyme used was recombinant human AKR1C3 (Aldo-keto reductase family 1 member C3; GenBank Accession No. NM_003739). This was expressed in E. coli as GST (glutathione S transferase) fusion protein and purified by glutathione Sepharose affinity chromatography. The GST was removed by digestion with thrombin and subsequent size exclusion chromatography (Dufort, I., Rheault, P., Huang, X F., Soucy, P., and Luu-The, V., Endocrinology 140, 568-574 (1999)).For the assay, 50 nl of a 100-fold concentrated solution of the test substance in DMSO were pipetted into a black low-volume 384-well microtiter plate (Greiner Bio-One, Frickenhausen, Germany), 2.5 μl of a solution of AKR1C3 in assay buffer [50 mM potassium phosphate buffer pH 7, 1 mM DTT, 0.0022% (w/v) Pluronic F-127, 0.01% BSA (w/v) and protease inhibitor cocktail (Complete, EDTA-free Protease Inhibitor Cocktail from Roche)] were added and the mixture was incubated for 15 min to allow pre-binding of the substances to the enzyme prior to the enzyme reaction. The enzyme reaction was then started by addition of 2.5 μl of a solution of NADPH (20 μM→final concentration in 5 μl of assay volume is 10 μM) and Coumberone (0.6 μM→final concentration in 5 μl of assay volume is 0.3 μM) in assay buffer, and the resulting mixture was incubated at 22° C. for the reaction time of typically 90 min. […].

With `O=C(c1cnn[nH]1)N1CC2CCC(C1)N2S(=O)(=O)c1ccccc1Br`, the pIC50 is 9.15.
Regarding `O=C(c1cnn[nH]1)N1CC2CCC(C1)N2S(=O)(=O)c1ccccc1Cl`, the pIC50 is 8.85.
